Reference: patent US20230248741A1, “Compositions and Methods for Lowering Triglycerides in a Subject with Reduced Kidney Function and Diabetes Mellitus” (Amarin Pharmaceuticals Ireland Limited, priority 2018, published 2023)

Experiments:
[1] = test system: patients with fasting TG ≥200 and <500 mg/dl despite statin therapy; test: ANCHOR study, entire population: fasting TG; format: in vivo, human; details: 4 g/day
Protocol: (§1) A multi-center, placebo-controlled, randomized, double-blind, 12-week study is performed to evaluate the efficacy and safety of >96% E-EPA in patients with fasting triglyceride levels ≥200 mg/dl and <500 mg/dl despite statin therapy (the mean of two qualifying entry values needs to be ≥185 mg/dl and at least one of the values needs to be ≥200 mg/dl). The primary objective of the study is to determine the efficacy of >96% E-EPA 2 g daily and 4 g daily, compared to placebo, in lowering fasting TG levels in patients with high risk for cardiovascular disease and with fasting TG levels ≥200 mg/dL and <500 mg/dL, despite treatment to LDL-C goal on statin therapy.
The primary efficacy variable for the double-blind treatment period is percent change in TG from baseline to Week 12 endpoint. […]

[2] = test system: patients with diabetes mellitus and eGFR <90 mL/min/1.73 m^2 for ≥3 months; test: ANCHOR post-hoc: lipids/lipoproteins, apolipoproteins, oxidation and inflammation markers; format: in vivo, human
Protocol: as §1
The primary efficacy variable for the double-blind treatment period is percent change in TG from baseline to Week 12 endpoint. The secondary efficacy variables for the double-blind treatment period include the following: • Percent changes in total cholesterol (TC), high-density lipoprotein cholesterol (HDL-C), LDL-C, calculated non-HDL-C, and very low-density lipoprotein cholesterol (VLDL-C) from baseline to Week 12 endpoint; • Percent change in very low-density lipoprotein TG from baseline to Week 12; • Percent changes in apolipoprotein A-I (apo A-I), apolipoprotein B (apo B), and apo A-I/apo B ratio from baseline to Week 12; • Percent changes in lipoprotein(a) from baseline to Week 12; • Percent changes in LDL particle number and size, measured by nuclear magnetic resonance, from baseline to Week 12; • Percent change in remnant-like particle cholesterol from baseline to Week 12; • Percent change in oxidized LDL from baseline to Week 12; • Changes in FPG and HbA1c from baseline to Week 12; • Change in insulin resistance, as assessed by the homeostasis model index insulin resistance, from baseline to Week 12; • Percent change in lipoprotein associated phospholipase A2 (Lp-PLA2) from baseline to Week 12; • Change in intracellular adhesion molecule-1 from baseline to Week 12; • Change in interleukin-2 from baseline to Week 12; • Change in plasminogen activator inhibitor-1 from baseline to Week 12. Note: this parameter will only be collected at sites with proper storage conditions; • Change in hsCRP from baseline to Week 12; and • Change in plasma concentration and red blood cell membrane content of fatty acid from baseline to Week 12 including EPA, DPA, DHA, AA, dihomo-γ-linolenic acid (DGLA), the ratio of EPA/AA, ratio of oleic acid/stearic acid (OA/SA), and the ratio of total omega-3 acids over total omega-6 acids.
CVD-related (e.g., atherogenic) parameters were analyzed in a post-hoc study of 198 patients from the multi-center, placebo-controlled, randomized double-blind, 12-week study described in Example 1. These 198 patients have reduced kidney reduced function (e.g., eGFR<90 mL/min/1.73 m^2 for ≥3 months) and diabetes mellitus.
Objective. The primary objective of this post-hoc study was to determine if and how 4 g of daily of >96% E-EPA, compared to placebo, affects patients with reduced kidney function, diabetes mellitus, and high triglyceride levels. The secondary objective was to determine if and how 4 g daily >96% E-EPA, compared to placebo, affected CVD-related parameters in patients having a high risk for CVD and fasting TG levels […]200 mg/dL and <500 mg/dL, despite treatment to LDL-C goal on statin therapy. These CVD-parameters include lipid levels, lipoprotein levels, and inflammatory markers, such as TC, LDL-C, HDL-C, VLDL-C, VLDL-TG, RLP-C, non-HDL-C, Apo B, Apo C-III, Lp-PLA2, hsCRP, and ox-LDL, and in plasma and RBC EPA concentration. CVD-parameters were analyzed for median difference in percent change from baseline to week 12 in subjects receiving 4 g/day of E-EPA and those receiving the placebo.
Subjects: 98 patients were randomized to E-EPA and 100 patients were randomized to placebo. In total, atherogenic parameters were analyzed in all 198 patients, 56% of which were male and 97% of which were white. The mean age of the 198 patients was 63 years old. […]

[3] = 4 g/day group, before treatment
[4] = 4 g/day, week 12, Hodges-Lehmann

## CC/C=C\C/C=C\C/C=C\C/C=C\C/C=C\CCCC(=O)OCC [E-EPA, ethyl eicosapentaenoate]
[1]
  median TGs reduction from baseline: −21.5%
[2]; 4 g/day group (n = 34), before treatment
  RLP-C Baseline, median: 14.0 mg/dL
[2]; 4 g/day group (n = 41), before treatment
  Ox-LDL Baseline, median (IQR): 54.2 (15.8) U/L
[2]; [3]
  Apo B Baseline, median (IQR): 92.0 (22.0) mg/dL
  Apo C-III Baseline, median (IQR): 42.0 (20.0) mg/dL
  HDL-C Baseline, median: 36.0 mg/dL
  LDL-C Baseline, median: 82.5 mg/dL
  Lp-PLA2 Baseline, median (IQR): 178.0 (54.0) ng/mL
  Non-HDL-C Baseline, median: 128.5 mg/dL
  TC Baseline, median: 169.5 mg/dL
  TG Baseline, median: 262.5 mg/dL
  VLDL-C Baseline, median: 42.0 mg/dL
  VLDL-TG Baseline, median: 186.0 mg/dL
  hsCRP Baseline, median (IQR): 2.2 (2.9) mg/L
[2]; 4 g/day, 12 weeks, P<0.0001
  reduction of triglycerides compared to placebo: about 19.7%
[2]; 4 g/day, week 12
  Apo B Change From Baseline, %, median (IQR): −3.5 (17.0) %
  Apo B End of Treatment, median (IQR): 88.0 (25.0) mg/dL
  Apo C-III Change From Baseline, %, median (IQR): −12.3 (45.6) %
  Apo C-III End of Treatment, median (IQR): 36.5 (23.0) mg/dL
  HDL-C Change From Baseline, %, median: −3.0%
  HDL-C End of Treatment, median: 37.0 mg/dL
  LDL-C Change From Baseline, %, median: −2.1%
  LDL-C End of Treatment, median: 83.0 mg/dL
  Lp-PLA2 Change From Baseline, %, median (IQR): −14.4 (16.5) %
  Lp-PLA2 End of Treatment, median (IQR): 160.0 (52.0) ng/mL
  Non-HDL-C Change From Baseline, %, median: −6.0%
  Non-HDL-C End of Treatment, median: 120.5 mg/dL
  Ox-LDL Change From Baseline, %, median (IQR): −8.2 (17.8) %
  Ox-LDL End of Treatment, median (IQR): 49.5 (12.8) U/L
  TC Change From Baseline, %, median: −5.2%
  TC End of Treatment, median: 160.5 mg/dL
  TG Change From Baseline, %, median: −19.3%
  TG End of Treatment, median: 209.8 mg/dL
  VLDL-C Change From Baseline, %, median: −12.3%
  VLDL-C End of Treatment, median: 36.5 mg/dL
  VLDL-TG Change From Baseline, %, median: −19.2%
  VLDL-TG End of Treatment, median: 146.0 mg/dL
  hsCRP Change From Baseline, %, median (IQR): −2.4 (81.7) %
  hsCRP End of Treatment, median (IQR): 1.7 (3.0) mg/L
[2]; [4]
  Apo B Median Difference in % Change From Baseline vs. Placebo: −10.1, <0.0001%
  Apo C-III Median Difference in % Change From Baseline vs. Placebo: −19.0, 0.0006%
  HDL-C Median Difference in % Change From Baseline vs. Placebo: −7.0, 0.0009%
  LDL-C Median Difference in % Change From Baseline vs. Placebo: −7.1, 0.0375%
  Lp-PLA2 Median Difference in % Change From Baseline vs. Placebo: −16.6, <0.0001%
  Non-HDL-C Median Difference in % Change From Baseline vs. Placebo: −13.7, <0.0001%
  Ox-LDL Median Difference in % Change From Baseline vs. Placebo: −16.2, <0.0001%
  RLP-C Median Difference in % Change From Baseline vs. Placebo: −35.4, 0.0029%
  TC Median Difference in % Change From Baseline vs. Placebo: −12.5, <0.0001%
  TG Median Difference in % Change From Baseline for Icosapent Ethyl 4 g/day vs. Placebo: −19.7, <0.0001%
  VLDL-C Median Difference in % Change From Baseline vs. Placebo: −19.0, 0.0006%
  VLDL-TG Median Difference in % Change From Baseline vs. Placebo: −22.3, <0.0001%
  hsCRP Median Difference in % Change From Baseline vs. Placebo: −24.4, 0.0120%
[2]; 4 g/day, week 12, n = 34
  RLP-C Change From Baseline, %, median: −28.9%
  RLP-C End of Treatment, median: 9.5 mg/dL
